What was measured:
[1] = test system: Anabaena flosaquae; conditions: acute; duration: 72 hours
[2] = test system: Tagia sp.; conditions: acute; duration: 14 days; mortality
[3] = test system: Apis mellifera; conditions: acute, mortality
[4] = test system: Skeletonema costatum; conditions: acute; duration: 72 hours; growth
[5] = test system: Danio rerio; conditions: short-term; duration: 168 hours; growth
[6] = test system: Daphnia magna; conditions: chronic/long-term; duration: 21 days; reproduction
[7] = test system: Anas platyrhynchos; conditions: reproductive
[8] = test system: Pimephales promelas; conditions: chronic/long-term; duration: 255 days; growth
[9] = test system: Oryctolagus sp.; conditions: repeat dose other; mortality
[10] = test system: Oncorhynchus mykiss; conditions: chronic/long-term; duration: 85 days; growth
[11] = test system: Colinus virginianus; conditions: for LC50 / LD50: acute, oral, mortality; for LC50: diet
[12] = test system: Rattus norvegicus

Compound: O=C(O)CNCP(=O)(O)O [Glyphosate]
- NOEC [1]: 12 mg/L
- LC50 [2]: 5600 mg/kg
- LD50 ([3]; dermal): > 100 µg/piece
- LD50 ([3]; oral, unspecified): 100 µg/piece
- NOEC [4]: 1.82 mg/L
- NOEC [5]: 1 mg/L
- NOEC [6]: 12.5 mg/L
- NOEL [7]: 125 mg/kg-day
- NOEC [8]: 25.7 mg/L
- NOAEL [9]: 50 mg/kg-day
- NOEC [10]: 9.6 mg/L
- LC50 [11]: > 5200 mg/kg-day
- LD50 [11]: 4330 mg/kg-day
- NOEL ([11]; reproduction developmental): 96.3 mg/kg-day
- LD50 ([12]; acute, mortality): > 2000 mg/kg-day
- NOAEL ([12]; chronic): 197 mg/kg-day

Compound: NCP(=O)(O)O [Aminomethylphosphonic acid]
- LC50 [11]: > 5620 mg/kg-day
- LD50 [11]: > 2250 mg/kg-day

— EPA's ToxValDB 9.5 (doi:10.2903/j.efsa.2015.4302)
